Source: PMC9865645, “The Impact of N^ε-Acryloyllysine Piperazides on the Conformational Dynamics of Transglutaminase 2” (International Journal of Molecular Sciences, 2023)

Target: T1, hTGase 2 (Homo sapiens, UniProt P21980)
T1 construct: purchased Zedira (Darmstadt, Germany) T022, lot 0716a
T1 sequence (P21980 1-687): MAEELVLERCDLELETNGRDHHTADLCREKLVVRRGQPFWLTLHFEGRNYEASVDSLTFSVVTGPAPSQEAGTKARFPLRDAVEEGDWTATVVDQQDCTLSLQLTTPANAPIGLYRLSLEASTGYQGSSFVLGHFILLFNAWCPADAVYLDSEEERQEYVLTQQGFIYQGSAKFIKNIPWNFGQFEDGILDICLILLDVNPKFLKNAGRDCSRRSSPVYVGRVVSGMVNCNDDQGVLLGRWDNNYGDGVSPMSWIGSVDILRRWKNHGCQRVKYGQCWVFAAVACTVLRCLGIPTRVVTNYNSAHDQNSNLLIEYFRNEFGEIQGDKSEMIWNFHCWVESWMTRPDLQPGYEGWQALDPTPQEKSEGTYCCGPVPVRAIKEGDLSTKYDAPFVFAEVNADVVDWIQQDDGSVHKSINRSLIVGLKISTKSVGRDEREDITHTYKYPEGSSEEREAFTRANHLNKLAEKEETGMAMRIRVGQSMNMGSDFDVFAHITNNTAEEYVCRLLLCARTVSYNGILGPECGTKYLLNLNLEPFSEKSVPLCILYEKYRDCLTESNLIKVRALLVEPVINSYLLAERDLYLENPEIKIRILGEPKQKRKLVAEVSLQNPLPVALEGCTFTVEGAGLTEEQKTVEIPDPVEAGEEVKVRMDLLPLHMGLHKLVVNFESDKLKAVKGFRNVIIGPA
Test: switchSENSE dynamic mode: upward motion (relative inverse slope, friction) of hTGase 2-dsDNA lever
Conditions: GTPγS 20 nM or Ca^2+ 1 mM; non-directed and His-tag-directed labeling
Method: Prior to the measurement of the switching kinetics of the differently conjugated hTGase 2, a complementary ssDNA without the enzyme (500 nM) was hybridized to the single-stranded capture strands on the chip electrodes to obtain the reference kinetics of the dsDNA lever. In addition, to determine the impact of CaCl2 and DMSO on the movement of the bare dsDNA lever, and thus on reference kinetics, its switching behavior was investigated in TE40, TE40 + 1 mM CaCl2, TE40 + 1 mM CaCl2 + 1% DMSO or TE40 + 1 mM CaCl2 + 0.1% DMSO.
Then, the dehybridization of the reference lever occurred during a regeneration step followed by the hybridization with an ssDNA-hTGase 2 conjugate (500 nM). Thereafter, the switching kinetics was recorded. […]
The impact on the hydrodynamic drag of the hTGase 2-functionalized lever was investigated under identical conditions for the three irreversible inhibitors 1–3: At first, the switching kinetics of the dsDNA lever and the hTGase 2-dsDNA conjugates were recorded. Secondly, the switching kinetics of the hTGase 2-dsDNA conjugates during and after Ca^2+ exposure were recorded using TE40 + 1 mM CaCl2 or TE40, respectively. […] In this process, the hydrodynamic drag was analyzed during the exposure to 10 µM inhibitor (for 6 min) dissolved in TE40 + 1 mM CaCl2 + 0.1% DMSO and to TE40 afterward. […]

Nc1nc2c(ncn2[C@@H]2O[C@H](COP(=O)(O)OP(=O)(O)OP(O)(O)=S)[C@@H](O)[C@H]2O)c(=O)[nH]1 [GTPγS]
relative inverse slope of hTGase 2-dsDNA lever versus pure buffer without effector: significantly smaller
